Experimental findings from article PMC9030166, “Natural Phaeosphaeride A Derivatives Overcome Drug Resistance of Tumor Cells and Modulate Signaling Pathways” (Pharmaceuticals, 2022) are described below.

The structures appear in SMILES notation.

The subject of assay [1] is K562. The assay can be described thus: MTT cytotoxicity, K562 chronic myeloid leukemia cells. To be noted: Homo sapiens, K562, suspension culture, 48 h (Table 2). In kind it is cell-based. From the text:
(§1) Cell cultures used in the work: adhesive cultures HBL-100 cells (cells of a normal mammary gland epithelium, immortalized by the SV40 virus and acquired tumorigenicity); MCF-7 breast cancer cells; PC-3 prostate adenocarcinoma cells; HCT-116 colorectal cancer cells; non-small cell lung cancer cells A549; human embryonic kidney cells HEK293; suspension cultures (NCI-H929 and RPMI8226 multiple myeloma cells), K562 chronic myeloid leukemia cells; THP-1 acute monocytic leukemia cells; and Jurkat acute T-cell leukemia cells. We also used several primary cultures of soft tissue sarcomas at 3–4passeges, kindly provided by T.I. Fetisov (The Ethics Committee of N.N. Blokhin NMRCO, protocol code 18-28-09095 and date of approval 28 September 2018).
(§2) Modifications of cell lines: K562/i-S9 is a clone obtained after transfection of K562 cells with the ABCB1 (MDR1) gene-encoding P-glycoprotein [36]. Cells HBL-100/Dox and K562/i-S9_Dox are cells obtained by long-term selection with increasing concentrations of doxorubicin (Sigma-Aldrich, St. Louis, MO, USA) from HBL-100 and K562/i-S9 cells, respectively. MCF-7, A594 cells, and primary cultures of soft tissue sarcomas were cultured in DMEM medium (PanEko, Russia), PC-3 and HCT-116 cells and all suspension cultures in RPMI1640 medium (PanEko, Russia) supplemented with 10% fetal bovine serum (GE Healthcare LifeSciences, USA), and gentamicin at a concentration of 40 μg/mL at 37 °C and 5% CO2.
(§3) Cells MCF-7, PC-3, A549, and HCT-116, and primary cultures of STSwere seeded in 96-well plates, 6 × 10^3 cells per well in 90 μL of culture medium. Suspension cultures were seeded at a concentration of 25 × 10^3 cells per well in 135 μL of medium. The test substances were dissolved in DMSO (Applichem, Council Bluffs, IA, USA) until a concentration of 1 × 10^−^2 M was obtained; for the subsequent dilution of the substances, a serum-free culture medium was used. The next day, for adhesive cultures, and on the same day, for suspension cultures, substances were added to the plates in a volume of 10 μL (adhesive cultures) and 15 μL (suspension cultures) per well at various concentrations; each concentration was added in 3–4 repetitions. The cells were cultured in the presence of substances for 48 h. Then, MTT reagent (PanEko, Moscow, Russia) was added to the wells at a concentration of 5 mg/mL in a volume of 20 μL per well. After 1.5–2 h, the medium with the reagent was removed, and the precipitate of the crystals of formazan was dissolved in 60 μL of DMSO. The optical density was determined using a Multiskan FC spectrophotometer (Thermo Scientific, Waltham, MA, USA) at a wavelength of 540 nm.
(§4) Based on the results of the experiments, a schedule was plotted of the dependence of the percentage of surviving cells (from control) on the concentration of the compound, and the sought concentration IC50 was calculated. The experiments were carried out in 3–4 times.

Assay [2] deals with CMT № 3 (Epithelial Sarcoma (Metastasis)). The assay can be described thus: MTT cytotoxicity, primary culture of soft tissue sarcoma CMT № 3. To be noted: Homo sapiens, 48 h. In kind it is cell-based.
Excerpt: It is believed that such cultures have a molecular profile that corresponds more with cells from the human body, in comparison with that of stable cultures of tumor cells (Table 3).
as §1, §2
as §3, with “Then, MTT reagent (PanEko, Moscow, Russia) was added to the wells at a concentration of 5 mg/mL in a volume of 20 μL per well. After 1.5–2 h, the medium with the reagent was removed, and the precipitate of the crystals of formazan was dissolved in 60 μL of DMSO.” left out
Based on the results of the experiments, a schedule was plotted of the dependence of the percentage of surviving cells (from control) on the concentration of the compound, and the sought concentration IC50 was calculated. […]

Assay [3] deals with HBL-100. The assay can be described thus: MTT cytotoxicity, sensitive HBL-100 cells. To be noted: Homo sapiens, 48 h. The format is cell-based.
Excerpt: as §1, §3, §4

Assay [4] relates to HBL-100/Dox. The assay can be described thus: MTT cytotoxicity, resistant HBL-100/Dox cells. The format is cell-based, human. The note with it: for IC50: Homo sapiens, HBL-100, resistant version, MTT, 48 h; for resistance of HBL-100/Dox cells relative to HBL-100: ratio of IC50 values, Table 5.
Excerpt: At the next stage, the cytotoxic activity of compounds 1, 2, and 9 (Scheme 2) was investigated on several pairs of cell lines that differ in the expression of P-gp and the method by which they were obtained. […] K562/i-S9_Dox cells were obtained from K562/i-S9 by selection with low concentrations of doxorubicin to increase P-gp expression.
as §2, §3
The experiments were carried out in 3–4 times.

In assay [5] the test system is CREB (pSer133). The assay can be described thus: MILLIPLEX MAP 9-Plex, CREB active form in A431 lysates. The format is cell-based, human. The note with it: A431 cell lysates, 10 μM, 1 h, M ± mx; control 154.5 ± 34.2. The text has this: (§5) We used the MILLIPLEX MAP Multi-Pathway Magnetic Bead 9-Plex-Cell Signaling Multiplex Assay, which allows the simultaneous detection of nine phosphorylated proteins that are markers of the main intracellular signaling pathways (phosphorylation site is indicated in parentheses), a universal transcription factor that controls the expression of immune response genes; apoptosis and cell cycle NFκB (pS536); cAMP-dependent transcription factor (CREB (pS133); mitogen-activated kinase p38 (pT180/pY182); stress-activated protein kinase JNK (pT183/pY185); ribosomal […]; transcription factors STAT3 (pS727) and STAT5A/B (pY694/699); protein kinase B (Akt) (pS473); and kinase regulated by extracellular signals ERK1/2 (pT185/pY187).
(§6) The effect of various concentrations of PPA derivatives on the cell culture was studied using xCelligence RTCA equipment (AceaBioscience, San Diego, CA, USA). The concentration closest to the IC50 (10 μM) was chosen as the experimental concentration. The selected concentration of phaeosphaeride A derivatives allows for the assessment of the early effect of compounds on cells and compares their effectiveness. In this experiment, the signaling pathways Akt (pSer473), p70S6K (pThr412), NFkB (p65-pSer536), and CREB (pSer133) were not activated (Table 8). The stress-activated signaling pathways ERK/MAP kinase 1/2 (pThr185/pTyr187), JNK (pThr183/pTyr185), and p38 (pThr180/pTyr182) were activated for these compounds.
(§7) We used a MILLIPLEX MAP Multi-Pathway Magnetic Bead 9-Plex-Cell Signaling Multiplex Assay kit (Merck/Millipore), according to the manufacturer’s protocol. A431 cells were cultured in DMEM with 10% FBS in 24-well plates. Compounds were added to the subconfluent cells at a concentration of 10 μM in DMEM medium for 1 h. Each compound was added in 5 experimental repeats. Cell lysates were prepared with lysis buffer (Millipore) with protease inhibitors (Complete, Roche); the protein concentration in the lysates was determined by the Lowry method. In samples equalized in protein concentration, the active forms of kinase cascades were determined using a Bio-Plex 200 fluorescent analyzer (Bio-Rad).

The subject of assay [6] is p38 (pThr180/pTyr182). In words: MILLIPLEX MAP 9-Plex, p38 active form in A431 lysates. To be noted: 10 μM; for p38 (pThr180/pTyr182) fluorescence intensity: A431 cell lysates, M ± mx, control 567.7 ± 266.6; for p38 (pThr180/pTyr182) fluorescence intensity / increase of fluorescence intensity of the active form p38: 1 h; for increase of fluorescence intensity of the active form p38 / activation of signaling pathway p38 (pThr180/pTyr182), in words: A431 cells; for increase of fluorescence intensity of the active form p38: versus control. In kind it is cell-based, human.
Excerpt: as §5, §6, §7

Assay [7] relates to STAT5 (pTyr694/699). The assay can be described thus: MILLIPLEX MAP 9-Plex, STAT5 active form in A431 lysates. The format is cell-based, human. The note with it: 10 μM; for STAT5 (pTyr694/699) fluorescence intensity: A431 cell lysates, 1 h, M ± mx, control 44.2 ± 10.2.
Excerpt: as §5, §6, §7

By IC50 is commonly meant the midpoint of a concentration-inhibition curve. A higher IC50 goes with weaker potency in that assay.

`C=C1C2=C(C(=O)N1OC)[C@@H](N1CCCC1)[C@@](C)(O)[C@H](CCCCC)O2` [Compound 1]: the IC50 in assay [1] was determined as 3.8 ± 0.6 µM; in assay [2], 4.8 ± 0.9 µM; in assay [3] it was 6.2 ± 0.8 µM; in assay [4], 7.6 ± 0.6 µM. In assay [4], the “resistance of HBL-100/Dox cells relative to HBL-100” value is given as “no difference in resistance”. The “CREB (pSer133) fluorescence intensity” value in assay [5] is listed as 329.9 ± 48.4 *↑ rel. units. Besides, the “p38 (pThr180/pTyr182) fluorescence intensity” value in assay [6] worked out at 2349.9 ± 755.5 rel. units. In addition, in assay [6], the “increase of fluorescence intensity of the active form p38” value (from here on “increase”) is listed as 1.5–3 times. Besides, the “STAT5 (pTyr694/699) fluorescence intensity” value in assay [7] is 115.4 ± 28.3 rel. units.

`C=C1C2=C(C(=O)N1OC)[C@@H](N(C)C)[C@@](C)(O)[C@H](CCCCC)O2` [Compound 2, (2S,3R,4R)-4-(dimethylamino)-3-hydroxy-6-methoxy-3-methyl-7-methylene-2-pentyl-3,4,6,7-tetrahydropyrano[2,3-c]pyrrol-5(2H)-one] returned an IC50 in assay [1] of 2.4 ± 0.7 µM. The IC50 in assay [2] is 7.8 ± 0.6 µM. Besides, in assay [3], 4.9 ± 1 µM corresponded to half-maximal inhibition (IC50). Further, in assay [4], the midpoint of inhibition, the IC50, lay at 6.6 ± 1.2 µM and the “resistance of HBL-100/Dox cells relative to HBL-100” value is given as “no difference in resistance”. Also, in assay [5], the “CREB (pSer133) fluorescence intensity” value is recorded as 610.0 ± 113.0 *↑ rel. units. In addition, in assay [6], the “p38 (pThr180/pTyr182) fluorescence intensity” value was 2795.4 ± 572.0 *↑ rel. units; the “activation of signaling pathway p38 (pThr180/pTyr182), in words” value (shortened to “activation … (pThr180/pTyr182), in words”) was “maximum degree of activation”; the “increase” value is recorded as 1.5–3 times. Further, in assay [7], the “STAT5 (pTyr694/699) fluorescence intensity” value was 179.2 ± 12.6 *↑ rel. units. For the same compound, the “activation of transcription factor STAT5A/B (pTyr694/699), in words” value in assay [7] (A431 cells) is given as “slightly activated”.

`C=C1C2=C(C(=O)N1OC)[C@@H](N(CCCC)CCCC)[C@@](C)(O)[C@H](CCCCC)O2` [Compound 5, (2S,3R,4R)-4-(dibutylamino)-3-hydroxy-6-methoxy-3-methyl-7-methylene-2-pentyl-3,4,6,7-tetrahydropyrano[2,3-c]pyrrol-5(2H)-one] had an IC50 in assay [1] of 6.5 ± 0.5 µM. The “CREB (pSer133) fluorescence intensity” value in assay [5] turned out to be 202.1 ± 26.3 rel. units. Moreover, in assay [6], the “p38 (pThr180/pTyr182) fluorescence intensity” value is 1245.9 ± 342.8 rel. units and the “activation … (pThr180/pTyr182), in words” value is “only slightly activated”. Besides, in assay [7], the “STAT5 (pTyr694/699) fluorescence intensity” value is listed as 75.7 ± 2.7 *↑ rel. units.

Consider `C=C1C2=C(C(=O)N1OC)[C@@H](N(CC)CCO)[C@@](C)(O)[C@H](CCCCC)O2` [Compound 9, (2S,3R,4R)-4-[ethyl(2-hydroxyethyl)amino]-3-hydroxy-6-methoxy-3-methyl-7-methylene-2-pentyl-3,4,6,7-tetrahydropyrano[2,3-c]pyrrol-5(2H)-one], for which the IC50 worked out at 3.7 ± 0.5 µM in assay [1], 13 ± 0.9 µM in assay [2], 6.5 ± 0.8 µM in assay [3] and 8.4 ± 0.4 µM in assay [4]. For the same compound, the “resistance of HBL-100/Dox cells relative to HBL-100” value in assay [4] was “tendency towards a slightly higher resistance”. The “CREB (pSer133) fluorescence intensity” value in assay [5] is given as 339.8 ± 53.3 *↑ rel. units. For the same compound, the “p38 (pThr180/pTyr182) fluorescence intensity” value in assay [6] was determined as 657.1 ± 287.5 rel. units. Besides, the “increase” value in assay [6] is reported as 1.5–3 times. In assay [7], the “STAT5 (pTyr694/699) fluorescence intensity” value came out at 69.6 ± 15.6 rel. units.

`CCCCC[C@@H]1OC2=C(C(=O)N(OC)/C2=C\n2cnnc2)C(n2cnnc2)[C@@]1(C)O` (stereo partly drawn) [Compound 10] displayed an IC50 in assay [1] of 45 ± 5.4 µM. For the same compound, the “CREB (pSer133) fluorescence intensity” value in assay [5] is 584.8 ± 105.5 *↑ rel. units. Also, in assay [6], the “p38 (pThr180/pTyr182) fluorescence intensity” value was 1783.6 ± 181.9 *↑ rel. units and the “activation … (pThr180/pTyr182), in words” value is “only slightly activated”. Further, the “STAT5 (pTyr694/699) fluorescence intensity” value in assay [7] is recorded as 115.2 ± 16.9 *↑ rel. units.
